The values below come from patent US20080214518A1, “Pharmaceutical Composition Comprising an Anti-Bacterial Agent and an Active Ingredient Selected From Carveol, Thymol, Eugenol, Borneol and Carvacrol” (priority 2005, published 2008).

The test system of assay [1] is Klebsiella pneumoniae. Kind of assay: Static tests to determine MBC. Conditions: carveol alone, Table 1. The class given is cell-based. On the procedure: (§1) The experiment was carried out with several Gram-negative and Gram-positive bacterial strains with different susceptibilities isolated in the hospital environment.
(§2) Antibacterial pharmaceutical compositions according to the invention were prepared by mixing amoxicillin at different concentrations with carveol at a sub-inhibitory concentration of 0.3 g per liter of solution or excipient (equivalent to 0.3 mg/ml). The minimal concentration of amoxicillin in combination with carveol 0.3 mg/ml that produced a bactericidal effect was determined. In each case, antibiotic activity was determined either with amoxicillin alone, or with carveol alone, or with the composition of the invention.

Assay [2] has as its system Staphylococcus aureus. Briefly: Static tests to determine MIC and MBC. The format is cell-based. Conditions: carveol alone. On the procedure: as §1, §2
(§3) The experiment was carried out with several resistant bacterial strains isolated in the hospital environment. The antibiotic used was chlortetracycline, one of the oldest antibiotics. An antibiotic pharmaceutical composition according to the invention was prepared by mixing chlortetracycline at different concentrations with carveol at a sub-inhibitory concentration of 0.3 g per liter of solution or excipient. […] In each case, antibiotic activity was determined either with chlortetracycline alone, or with carveol alone, or with the composition of the invention.
as §3, with “streptomycin, an important member” for “chlortetracycline, one”, “aminoside family which is among the most important” for “oldest”, “streptomycin” for “chlortetracycline”
as §3, with “erythromycin, an important member” for “chlortetracycline, one”, “macrolide family which is among the most important” for “oldest”, “erythromycin” for “chlortetracycline”

In assay [3] the test system is Bacillus subtilis. Briefly: Static tests to determine MIC and MBC. The format is cell-based. On the procedure:
as §1, §2
(§4) The experiment was carried out with several resistant bacterial strains isolated in the hospital environment. The antibiotic used was ampicillin, from the beta-lactam family, which is one of the most widely used antibiotics. An antibiotic pharmaceutical composition according to the invention was prepared by mixing ampicillin at different concentrations with carveol at a sub-inhibitory concentration of 0.3 g per liter of solution or excipient. This pharmaceutical composition of the invention was named Ampi-P, for potentiated ampicillin. In each case, antibiotic activity was determined either with ampicillin alone, or with carveol alone, or with the composition of the invention.
(§5) The experiment was carried out with several resistant bacterial strains isolated in the hospital environment. The antibiotic used was cephazolin, from the cephalosporin family, another class of beta-lactams which are among the most widely used antibiotics. An antibiotic pharmaceutical composition according to the invention was prepared by mixing cephazolin at different concentrations with alpha-ionone and beta-ionone at a sub-inhibitory concentration of 0.3 g per liter of solution or excipient. This pharmaceutical composition of the invention was named Cepha-P, for potentiated cephazolin. In each case, antibiotic activity was determined either with cephazolin alone, or with alpha-ionone or beta-ionone alone, or with the composition of the invention.
as §4, with “polymyxin B,” for “ampicillin,”, “peptide” for “beta-lactam”, “oldest” for “most widely used”, “polymyxin B” for “ampicillin”, “Polymix-P,” for “Ampi-P,”, “polymyxin B.” for “ampicillin.”
as §4, with “chloramphenicol,” for “ampicillin,”, “phenicol” for “beta-lactam”, “oldest” for “most widely used”, “chloramphenicol” for “ampicillin”, “Chloram-P,” for “Ampi-P,”, “chloramphenicol.” for “ampicillin.”
(§6) The experiment was carried out with several resistant bacterial strains isolated in the hospital environment. The antibiotic used was chlortetracycline, one of the oldest antibiotics. An antibiotic pharmaceutical composition according to the invention was prepared by mixing chlortetracycline at different concentrations with carveol at a sub-inhibitory concentration of 0.3 g per liter of solution or excipient.

For assay [4], the system named is Salmonella typhimurium. Kind of assay: Static tests to determine MIC and MBC. The class given is cell-based. On the procedure:
as §1, §2, §4, §5
as §4, with “polymyxin B,” for “ampicillin,”, “peptide” for “beta-lactam”, “oldest” for “most widely used”, “polymyxin B” for “ampicillin”, “Polymix-P,” for “Ampi-P,”, “polymyxin B.” for “ampicillin.”
as §4, with “chloramphenicol,” for “ampicillin,”, “phenicol” for “beta-lactam”, “oldest” for “most widely used”, “chloramphenicol” for “ampicillin”, “Chloram-P,” for “Ampi-P,”, “chloramphenicol.” for “ampicillin.”
as §6

In assay [5] the test system is Escherichia coli. Kind of assay: Static tests to determine MIC and MBC. The class given is cell-based. On the procedure:
as §1, §2, §4, §5
as §4, with “polymyxin B,” for “ampicillin,”, “peptide” for “beta-lactam”, “oldest” for “most widely used”, “polymyxin B” for “ampicillin”, “Polymix-P,” for “Ampi-P,”, “polymyxin B.” for “ampicillin.”
as §4, with “chloramphenicol,” for “ampicillin,”, “phenicol” for “beta-lactam”, “oldest” for “most widely used”, “chloramphenicol” for “ampicillin”, “Chloram-P,” for “Ampi-P,”, “chloramphenicol.” for “ampicillin.”
as §6

The test system of assay [6] is Staphylococcus epidermidis. Kind of assay: Static tests to determine MIC and MBC. The class given is cell-based. On the procedure:
as §1
Antibacterial pharmaceutical compositions according to the invention were prepared by mixing amoxicillin at different concentrations with carveol at a sub-inhibitory concentration of 0.3 g per liter of solution or excipient (equivalent to 0.3 mg/ml). The minimal concentration of amoxicillin in combination with carveol 0.3 mg/ml that produced a bactericidal effect was determined. In each case, antibiotic activity was determined either with amoxicillin alone, or with carveol alone, or with the composition of the invention. […]

For assay [7], the system named is amoxicillin-resistant Klebsiella pneumoniae. Kind of assay: In vivo test in mice experimentally infected by intraperitoneal injection. Conditions: organs of mice which died during the experiment; amoxicillin alone 10 mg/kg/day by gavage. On the procedure: Groups of 10 mice were experimentally infected by intraperitoneal injection of 1,000,000 cells (colony-forming units) of amoxicillin-resistant Klebsiella pneumoniae.
The first group was composed of control mice which were infected and untreated.
The second group was composed of infected mice treated by gavage, 24 h post-infection, with amoxicillin alone at a dose of 10 mg/kg of body weight/day.
The third group was composed of infected mice treated by gavage, 24 h post-infection, with carveol alone at a dose of 120 mg/kg of body weight/day.
The fourth group was composed of infected mice treated by gavage, 24 h post-infection, with the pharmaceutical composition of the invention (AMOX-P) at a dose of 2 mg/kg of body weight/day of amoxicillin and 120 mg/kg of body weight/day of carveol.
The survival rate was measured over time. […] All the other mice died between the second and third day post-infection.

The subject of assay [8] is Escherichia coli strains susceptible to 5 μg/ml amoxicillin. The format is cell-based. How it is done:
Escherichia coli strains susceptible to 5 μg/ml amoxicillin were cultured in the presence of a sub-inhibitory concentration of 3 μg/ml, then seeded into nutrient medium (Muller Hinton) containing increasing concentrations of amoxicillin (4 then 5 then 6 μg/ml . . . ). The same procedure was carried out with amoxicillin potentiated by carvacrol at a concentration two times lower than the MIC of carvacrol alone, namely 500 μg/ml. This experiment was based on the principle that at each subcloning, a mutant resistant to the new amoxicillin concentration would multiply, giving rise to a strain more resistant than the strain from which the subcloning arose.

The mark [9] stands for this setting: first substance alone, exponential growth phase.
Where [10] appears, read: starting from 3 μg/ml, potentiated: carvacrol 500 μg/ml.

Read-outs that look alike come from different tables or passages of the source.

As to `C=C(C)C1CC=C(C)C(O)C1` (mixture of isomers) [Carveol, carveol], the minimal bactericidal concentration (MBC) came to 2000 µg/mL in assay [1]; 2000 µg/mL in assay [2] (Staphylococcus aureus, Table 1, read-out: MBC); 2000 µg/mL in assay [2] (exponential growth phase); 2000 µg/mL in assay [3] (Bacillus subtilis, carveol alone, Table 1, read-out: MBC); 2000 µg/mL in assay [3] (setting [9]); 2000 µg/mL in assay [4] (Salmonella enterica, TYPHIMURIUM, carveol alone, Table 1, read-out: MBC). In addition, the MBC in assay [4] (setting [9]) came to 2000 µg/mL; in assay [5] (Escherichia coli, carveol alone, Table 1, read-out: MBC), 2000 µg/mL; in assay [5] (setting [9]) it was 2000 µg/mL; in assay [6] (Staphylococcus epidermidis, carveol alone, Table 1, read-out: MBC) it was 2000 µg/mL; in assay [6] (setting [9]), 2000 µg/mL.
In the case of `CC1(C)S[C@@H]2[C@H](NC(=O)[C@H](N)c3ccc(O)cc3)C(=O)N2[C@H]1C(=O)O` [Amoxicillin, amoxicillin], in assay [7], the “Klebsiella pneumoniae loads in kidney, lung and bone marrow” value is given as “high loads”. Also, the “Final conc. (to which resistant mutants were selected)” value in assay [8] (50 μg/ml was the highest concentration in the experiment) was 50 µg/mL. In addition, the “No. of subclonings (to reach final conc.)” value in assay [8] (starting from 3 μg/ml) is reported as 9. In assay [8] (setting [10]), the “Median conc. (to which resistant mutants were selected)” value came to 17 µg/mL and the “No. of subclonings (to reach median conc.)” value stood at 4.

For orientation: MBC means the smallest concentration meeting the test's criterion for killing.
